Like-named read-outs stand apart in the source and are kept apart here.
Assays:
[1] = system: MDCK-MDR1 cells; conditions: MDCK-MDR1, pH 7.4
[2] = system: MDCK-MDR1 cells; conditions: cited from earlier work
[3] = Calculation of neutral fraction (fn)
[4] = system: P-gp (MDR1); assay: in vitro; conditions: dog
[5] = in vitro; conditions: dog
[6] = system: P-gp (MDR1); assay: in vitro; conditions: dog, MDCK-MDR1, Papp, B⟶A
[7] = system: MDCK-II-MDR1 cells; conditions: intrinsic membrane permeability, calculated from Papp, A⟶B with elacridar
Procedure: Briefly, cells (passage 20–40) were seeded onto 12-well PET inserts (CellQART, Northeim, Germany; pore size: 0.4 μm; filter thickness: 11.5 μm, 100×10^6 pores/cm^2) at a density of 1.5×10^5 cells/insert. […] One day before the experiments, the cell medium was refreshed. For P0 determination, inserts were pre-incubated with the P-gp inhibitor elacridar (2 μM) for 30 min in HBSS pH 7.4. The transport rates in both directions of the test compounds were determined in duplicate or triplicate for 4–5 different pH values between pH 5 and pH 9. The transport buffer was HBSS buffered with 10 mM MES for pH 5 and 6, 25 mM HEPES for pH 7, 7.4 and 8, and 10 mM TAPS for pH 9. Stock solutions were prepared in the transport buffer and pre-warmed to 37 °C. Additional stock solutions with 2 μM elacridar were prepared at suitable pH values to measure P0 values in tandem. The pH of all buffer and stock solutions, as well as the pH of all samples after experiment completion, was controlled with a rapid pH automated pH meter (Hudson Robotics, Inc., Springfield, NJ, USA). Inserts were used in 12-well plates (TPP Techno Plastic Products AG, Trasadingen, Switzerland). […] Timestep length was determined individually for each compound and direction measured to ensure sink conditions. […]
to ensure that measured transport rates would not be affected by active efflux .

[8] = system: MDCK-II-MDR1 cells
[9] = determined 25 °C; etoposide acidic, acebutolol basic; ref Avdeef, 2012; cited from earlier work
[10] = no reference given; cited from earlier work

## CC(C)N(CCC(c1ccccc1)c1cc(CO)ccc1O)C(C)C (centres unmarked) [5-Hydroxymethyl Tolterodine]
[1]
  Factor difference: 6
[2]; MDCK-MDR1, pH 7.4
  Papp, B⟶A: 6.3e-05 cm/s
  Papp, inhibitor: 1.1e-05 cm/s

## COc1cc2c(c(OC)c1OC)-c1ccc(OC)c(=O)cc1[C@@H](NC(C)=O)CC2 [Colchicine]
[3]; neutral fraction at pH 8
  fn: 100%
[1]; dog
  Factor difference: 7
[2]; MDCK-MDR1, pH 7.4
  Papp, B⟶A: 1.19e-05 cm/s
  Papp, inhibitor: 1.64e-06 cm/s
[4]; MDCK-MDR1, pH 5
  Papp: 0.52 ± 0.15 ×10⁻⁶ cm/s
  Papp B→A: 2.12 ± 0.14 ×10⁻⁶ cm/s
[4]; MDCK-MDR1, pH 6
  Papp: 0.2 ± 0.04 ×10⁻⁶ cm/s
  Papp B→A: 4.42 ± 0.33 ×10⁻⁶ cm/s
[4]; MDCK-MDR1, pH 7
  Papp: 0.16 ± 0.04 ×10⁻⁶ cm/s
  Papp B→A: 5.03 ± 0.58 ×10⁻⁶ cm/s
[4]; MDCK-MDR1, pH 8
  Papp: 0.2 ± 0.05 ×10⁻⁶ cm/s
  Papp B→A: 6.33 ± 0.62 ×10⁻⁶ cm/s
[4]; MDCK-MDR1, pH 9
  Papp: 0.41 ± 0.06 ×10⁻⁶ cm/s
  Papp B→A: 5.89 ± 1.14 ×10⁻⁶ cm/s
[5]; MDCK-MDR1, pH 5
  recovery: 100 to 120%
[5]; MDCK-MDR1, pH 6
  recovery: 78 to 109%
[5]; MDCK-MDR1, pH 7
  recovery: 98 to 110%
[5]; MDCK-MDR1, pH 8
  recovery: 96 to 102%
[5]; MDCK-MDR1, pH 9
  recovery: 92 to 100%
[6]
  Papp: 6.33 ×10⁻⁶ cm/s
[7]
  LogP0: -5.9 P in cm/s

## COc1cc([C@@H]2c3cc4c(cc3[C@@H](O[C@@H]3O[C@@H]5CO[C@@H](C)O[C@H]5[C@H](O)[C@H]3O)[C@H]3COC(=O)[C@H]23)OCO4)cc(OC)c1O [Etoposide]
[3]; neutral fraction at pH 7.4
  fn: 84%
[2]; with inhibitor, pH 7.4 iso-method, ref Troutman and Thakker (2003)
  Papp, inhibitor: 6.6e-07 cm/s
[2]; with inhibitor, pH 7.4 iso-method, ref Wang et al. (2005)
  Papp, inhibitor: 3e-07 cm/s
[2]; without inhibitor, pH 7.4 iso-method, ref Troutman and Thakker (2003)
  Papp, B⟶A: 1.04e-05 cm/s
[2]; without inhibitor, pH 7.4 iso-method, ref Wang et al. (2005)
  Papp, B⟶A: 1.8e-06 cm/s
[4]; MDCK-MDR1, pH 6
  Papp: 0.12 ± 0.02 ×10⁻⁶ cm/s
  Papp B→A: 3.16 ± 0.19 ×10⁻⁶ cm/s
  efflux ratio: 26.8
[4]; MDCK-MDR1, pH 7.4
  Papp: 0.11 ± 0.02 ×10⁻⁶ cm/s
  Papp B→A: 4.05 ± 1.18 ×10⁻⁶ cm/s
  efflux ratio: 37.6
[4]; MDCK-MDR1, pH 8
  Papp: 0.14 ± 0.04 ×10⁻⁶ cm/s
  Papp B→A: 2.8 ± 0.08 ×10⁻⁶ cm/s
  efflux ratio: 20.2
[4]; MDCK-MDR1, pH 9
  Papp: 0.19 ± 0.08 ×10⁻⁶ cm/s
  Papp B→A: 0.43 ± 0.03 ×10⁻⁶ cm/s
  efflux ratio: 2.2
[5]; MDCK-MDR1, pH 6
  recovery: 92 to 97%
[5]; MDCK-MDR1, pH 7.4
  recovery: 98 to 108%
[5]; MDCK-MDR1, pH 8
  recovery: 83 to 98%
[5]; MDCK-MDR1, pH 9
  recovery: 60 to 71%
[8]; pH 6, iso-pH method
  logPapp, A⟶B: -6.93 P in cm/s
  logPapp, B⟶A: -5.50 P in cm/s
[8]; pH 7.4, iso-pH method
  logPapp, A⟶B: -6.97 P in cm/s
  logPapp, B⟶A: -5.39 P in cm/s
[8]; pH 8, iso-pH method
  logPapp, A⟶B: -6.86 P in cm/s
  logPapp, B⟶A: -5.55 P in cm/s
[8]; pH 9, iso-pH method
  logPapp, A⟶B: -6.71 P in cm/s
  logPapp, B⟶A: -6.37 P in cm/s
[7]
  LogP0: -6.3 P in cm/s
[9]
  pKa: 8.53

## COc1ccc2c(c1)c(CC(=O)O)c(C)n2C(=O)c1ccc(Cl)cc1 [Indomethacin]
[10]
  logKhex/water: 0.58

## CC[C@@H](CO)NC(=O)[C@@H]1C=C2c3cccc4c3c(cn4C)C[C@H]2N(C)C1 [Methysergide]
[1]; dog
  Factor difference: 2
[2]; MDCK-MDR1, pH 7.4
  Papp, B⟶A: 75.3
  Papp, inhibitor: 39.4

— PMC11637191, “The pH-dependence of efflux ratios determined with bidirectional transport assays across cellular monolayers” (International Journal of Pharmaceutics: X, 2024)
